Blank lines part the entries; values can stand above or below the compound they belong to.
Assay: photoluminescence quantum yield (fraction); solvent given as SMILES

photoluminescence quantum yield (in ClCCl): 0.7
Structure (SMILES): CC(C)(C)c1ccc(C#Cc2c(C#Cc3ccc(C(C)(C)C)cc3)c3cccc4c(C#Cc5ccc(C(C)(C)C)cc5)c(C#Cc5ccc(C(C)(C)C)cc5)c5cccc2c5c34)cc1

photoluminescence quantum yield (in C1CCOC1): 0.3
Structure (SMILES): Cc1ccc(-c2ccc(-c3ccc(-c4ccc(-c5ccc(C)cc5)cc4)c(/C(=C(/c4ccccc4)c4cc(-c5ccc(-c6ccc(C)cc6)cc5)ccc4-c4ccc(-c5ccc(C)cc5)cc4)c4ccccc4)c3)cc2)cc1

Structure (SMILES): COc1ccc(C2=C3C(C)=CC(C=Cc4ccc(C(=O)OC5C[C@H]6CCC5(C)C6(C)C)cc4)=[N+]3[B-](F)(F)n3c(C)cc(C)c32)cc1 (stereo not given in full)
photoluminescence quantum yield (in Cc1ccccc1): 0.41

photoluminescence quantum yield (in ClCCl): 0.145
Structure (SMILES): COc1ccc(C#CC2=C3CCc4ccccc4C3=[O+][B-](F)(F)O2)cc1

Structure (SMILES): ClP1(Cl)=NP(Cl)(Cl)=NP(Cl)(Oc2ccc3ccc4cccc5ccc2c3c45)=N1 (stereo not given)
photoluminescence quantum yield (in ClCCl): 0.55

photoluminescence quantum yield (in C1COCCO1): 0.165
photoluminescence quantum yield (in CC#N): 0.047
photoluminescence quantum yield (in CCO): 0.033
photoluminescence quantum yield (in CCOC(C)=O): 0.089
photoluminescence quantum yield (in O): 0.0065
Structure (SMILES): CC1=N/C(=C\c2ccncc2)C(=O)N1C

photoluminescence quantum yield (in O): 0.78
Structure (SMILES): CCCCn1c(-c2ccc(-c3ccc(-c4ccc(-c5n(CCCC)c6cc(C)ccc6[n+]5CCCC)cc4)cc3)cc2)[n+](CCCC)c2ccc(C)cc21

photoluminescence quantum yield (in CC#N): 0.015
Structure (SMILES): N#Cc1cccc(-c2pc3ccccc3s2)c1 (stereo not given)

Structure (SMILES): C(#Cc1ccc2ccc3cccc4ccc1c2c34)c1ccccc1
photoluminescence quantum yield (in Cc1ccccc1): 0.61

Structure (SMILES): CC1(C)OB(c2ccc3ccc4cccc5ccc2c3c45)OC1(C)C
photoluminescence quantum yield (in Cc1ccccc1): 0.81

photoluminescence quantum yield (in CC1CCCO1): 0.13
Structure (SMILES): O=c1cc2c(-c3c(O)c4cccc5ccc6oc(=O)cc3c6c54)c(O)c3cccc4ccc(o1)c2c43

photoluminescence quantum yield (in ClCCl): 0.57
Structure (SMILES): COc1cn2cc(-c3ccc(C#N)cc3)[n-][n+]2c1

photoluminescence quantum yield (in ClCCl): 0.01
Structure (SMILES): CN(C)c1ccc(/C=C/c2nc(N3CCOCC3)c3c([n+]2[O-])CCCC3)cc1

photoluminescence quantum yield (in ClC(Cl)Cl): 0.24
Structure (SMILES): O=C1[C@@H]2[C@H](C(=O)N1c1ccc3cc4ccccc4cc3c1)[C@@H]1C=C[C@H]2C1

photoluminescence quantum yield (in CCO): 0.292
photoluminescence quantum yield (in O): 0.058
Structure (SMILES): Cc1cc2nc3cc(C)c(N)cc3[n+](-c3ccccc3)c2cc1N

photoluminescence quantum yield (in CO): 0.18
Structure (SMILES): COc1ccc(-c2nc(-c3ccccc3)c(-c3ccccc3)[nH]2)cc1

photoluminescence quantum yield (in C1COCCO1): 0.95
photoluminescence quantum yield (in CC#N): 0.26
photoluminescence quantum yield (in CO): 0.03
photoluminescence quantum yield (in ClCCl): 0.2
Structure (SMILES): CN(C)c1nc(N(C)C)c2nc(C#N)n(Cc3ccccc3)c2n1

photoluminescence quantum yield (in CCCCCC): 0.02
photoluminescence quantum yield (in ClCCl): 0.02
Structure (SMILES): CC(C)[Si](C#Cc1ccc(C#C[Si](C(C)C)(C(C)C)C(C)C)c2nc3cc4c(cc3nc12)[C@H]1c2ccccc2[C@@H]4c2ccccc21)(C(C)C)C(C)C

photoluminescence quantum yield (in ClCCl): 0.00354
Structure (SMILES): COC(=O)C1=C(C(=O)OC)C2(c3ccccc3-c3ccccc32)[C@@H](c2ccccc2)C=C2c3cc(OC)c(OC)cc3CCN21

photoluminescence quantum yield (in CC#N): 0.43
Structure (SMILES): CC(C)Oc1ccc(C#Cc2cc3ccccc3oc2=O)cc1

photoluminescence quantum yield (in O): 0.064
Structure (SMILES): Nc1cc([NH3+])cc(-c2nc3ccccc3s2)c1

Structure (SMILES): CCCC1=Cc2nc1ccc1[nH]c(cc1CCC)c1nc(c(OC(=O)CCCC(=O)OC(C)(C)C)cc3[nH]c2cc3CCC)C(CCC)=C1
photoluminescence quantum yield (in Cc1ccccc1): 0.21

Structure (SMILES): CC(C)[Si](C#Cc1c2ccc(C(C)(C)C)cc2c(C#C[Si](C(C)C)(C(C)C)C(C)C)c2ccc(C(C)(C)C)cc12)(C(C)C)C(C)C
photoluminescence quantum yield (in Cc1ccccc1): 0.92

photoluminescence quantum yield (in ClCCl): 0.43
Structure (SMILES): C(#Cc1c(C#Cc2ccccc2)c(C#Cc2ccccc2)c(C#Cc2ccccc2)c(C#Cc2ccccc2)c1C#Cc1ccccc1)c1ccccc1

photoluminescence quantum yield (in C1CCOC1): 0.52
Structure (SMILES): COc1ccc(-c2cc3c(s2)-c2sc(-c4ccc(OC)cc4)cc2P(c2ccccc2)(c2ccccc2)=[O+][B-]3(c2c(C)cc(C)cc2C)c2c(C)cc(C)cc2C)cc1

photoluminescence quantum yield (in ClC(Cl)Cl): 0.39
Structure (SMILES): CCCCCCCCCCCCOc1cc2c3c(ccc4c5c(SCCCCCCCCCCCC)cc6c7c(ccc(c1c34)c75)C(=O)N(C1CCCCC1)C6=O)C(=O)N(C1CCCCC1)C2=O

photoluminescence quantum yield (in C1CCCCC1): 0.93
Structure (SMILES): CCCC1(CCC)c2cc(-c3ccc4c(c3)C(CCC)(CCC)c3cc(C(C)(C)CC)ccc3-4)ccc2-c2ccc(-c3ccc4c(c3)C(CCC)(CCC)c3cc(C(C)(C)CC)ccc3-4)cc21

photoluminescence quantum yield (in ClCCl): 0.014
Structure (SMILES): c1csc(-n2c3ccccc3c3ccccc32)c1

photoluminescence quantum yield (in ClCCl): 0.83
Structure (SMILES): F[B-]1(F)OC(C#Cc2ccccc2)=C2CCc3ccccc3C2=[O+]1

Structure (SMILES): CC(C)(C)c1ccc(-c2sc3c(-c4ccc(C(C)(C)C)cc4)c4n(c3c2-c2ccc(C(C)(C)C)cc2)[B-](F)(F)[N+]2=Cc3c(-c5ccc(C(C)(C)C)cc5)c5sc(-c6ccc(C(C)(C)C)cc6)c(-c6ccc(C(C)(C)C)cc6)c5n3[B-](F)(F)[N+]2=C4)cc1
photoluminescence quantum yield (in CC#N): 0.49
photoluminescence quantum yield (in CCCCCC): 0.64
photoluminescence quantum yield (in CN(C)C=O): 0.45
photoluminescence quantum yield (in Cc1ccccc1): 0.59
photoluminescence quantum yield (in ClCCl): 0.6

photoluminescence quantum yield (in ClC(Cl)Cl): 0.11
Structure (SMILES): COc1ccc2c(c1)CCc1c(-c3ccccc3)c3n(c1-2)[B-](F)(F)[N+]1=c2ccc4ccccc4c2=C(c2ccccc2)C1=N3

photoluminescence quantum yield (in ClCCl): 0.54
Structure (SMILES): C(#Cc1cccc2nsnc12)c1ccc(-n2c3ccccc3c3ccccc32)cc1

photoluminescence quantum yield (in ClC(Cl)Cl): 0.1
Structure (SMILES): CC(C)C[Si](C#Cc1c2c(=O)c3ccccc3c2c(C#C[Si](CC(C)C)(CC(C)C)CC(C)C)c2c(=O)c3ccccc3c12)(CC(C)C)CC(C)C

Structure (SMILES): CC1=CC(C)=[N+]2C1=C(c1ccc(N(C)C)cc1)c1c(C)cc(/C=C/c3ccc(N(C)C)cc3)n1[B-]2(F)F
photoluminescence quantum yield (in CCOCC): 0.78

photoluminescence quantum yield (in ClCCl): 1
Structure (SMILES): FC(F)(F)c1ccc(/C=C/c2nc(/C=C/c3ccc(N(c4ccccc4)c4ccccc4)cc3)cc(/C=C/c3ccc(N(c4ccccc4)c4ccccc4)cc3)n2)cc1

photoluminescence quantum yield (in C1COCCO1): 0.029
photoluminescence quantum yield (in CC#N): 0.011
photoluminescence quantum yield (in CCO): 0.099
photoluminescence quantum yield (in CCOC(C)=O): 0.017
photoluminescence quantum yield (in O): 0.004
Structure (SMILES): CN1C(=O)/C(=C/c2ccncc2)N=C1/C=C/c1ccccc1

photoluminescence quantum yield (in CCO): 0.52
photoluminescence quantum yield (in ClC(Cl)Cl): 0.2
Structure (SMILES): CCOc1ccc2c(-c3nc(-c4cccc(Br)c4)no3)cc(=O)oc2c1

photoluminescence quantum yield (in ClCCl): 0.92
Structure (SMILES): CCCCN1C(=O)c2ccc3c4ccc5c6c(cc(Br)c(c7ccc(c2c37)C1=O)c64)C(=O)N(CCCC)C5=O

photoluminescence quantum yield (in C1CCOC1): 0.54
photoluminescence quantum yield (in C1COCCO1): 0.48
photoluminescence quantum yield (in CC#N): 0.41
photoluminescence quantum yield (in CCO): 0.24
photoluminescence quantum yield (in ClCCl): 0.62
Structure (SMILES): CN(C)c1ccc(/C=C/c2ccc(-c3cc(-c4ccccn4)nc(-c4ccccn4)c3)cc2)cc1

photoluminescence quantum yield (in C1CCOC1): 0.486
Structure (SMILES): CCCCCOc1cc2oc(=O)c3c4ccc(N)cc4c4ccc5cccc6c(c1)c2c3c4c56

photoluminescence quantum yield (in CCO): 0.08
photoluminescence quantum yield (in ClCCl): 0.16
Structure (SMILES): c1ccc(-c2c3ccccc3c(-c3ncccn3)c3ccccc23)cc1

photoluminescence quantum yield (in C1CCCCC1): 0.52
photoluminescence quantum yield (in CCOC(C)=O): 0.12
Structure (SMILES): CC1=[N+]2C(=C(Oc3ccc4c(c3)CC[C@@H]3[C@@H]4CC[C@]4(C)C(=O)CC[C@@H]34)c3ccc(C)n3[B-]2(F)F)C=C1c1cc2n(c1)[B-](F)(F)[N+]1=CC=CC1=C2c1c(C)cc(C)cc1C

photoluminescence quantum yield (in ClC(Cl)Cl): 0.06
Structure (SMILES): C(#Cc1ccccc1)C(C#Cc1ccccc1)=Cc1cccc(C=C(C#Cc2ccccc2)C#Cc2ccccc2)c1

photoluminescence quantum yield (in CC#N): 0.14
Structure (SMILES): COC(=O)c1c(NC(C)(C)C)oc(-c2ccc(-c3ccccc3)cc2)c1C(=O)OC

photoluminescence quantum yield (in CN(C)C=O): 0.7
photoluminescence quantum yield (in ClC(Cl)Cl): 0.85
Structure (SMILES): COc1cc2c(cc1OC)C1=C3C(=O)N4C=Cc5cc(OC)c(OC)cc5C4=C3C(=O)N1C=C2

photoluminescence quantum yield (in ClCCl): 0.91
photoluminescence quantum yield (in c1cc(-n2c3ccccc3c3ccccc32)cc(-n2c3ccccc3c3ccccc32)c1): 0.9
Structure (SMILES): c1ccc(N(c2ccccc2)c2ccc(-c3ccc4c(c3)C3(c5ccccc5Oc5ccccc53)c3cc(-c5ccc(N(c6ccccc6)c6ccccc6)cc5)ccc3-4)cc2)cc1

photoluminescence quantum yield (in C1CCCCC1): 0.16
Structure (SMILES): c1ccc(-c2cc3cccc[n+]3[b-]3ccc(-c4cc[b-]5c(c4)c(-c4ccccc4)cc4cccc[n+]54)cc32)cc1

photoluminescence quantum yield (in ClCCl): 0.26
Structure (SMILES): CCCCN(CCCC)c1ccc(C#Cc2cc(C#Cc3ccc(C#N)cc3)c(C#Cc3ccc(C#N)cc3)cc2C#Cc2ccc(N(CCCC)CCCC)cc2)cc1

photoluminescence quantum yield (in CC(C)(C)O): 0.12
photoluminescence quantum yield (in CC(C)CO): 0.12
photoluminescence quantum yield (in CC(C)O): 0.11
photoluminescence quantum yield (in CCCCO): 0.13
photoluminescence quantum yield (in CCCO): 0.16
photoluminescence quantum yield (in CCO): 0.19
photoluminescence quantum yield (in CN(C)C=O): 0.04
photoluminescence quantum yield (in CNC=O): 0.08
photoluminescence quantum yield (in CO): 0.23
photoluminescence quantum yield (in NC=O): 0.31
photoluminescence quantum yield (in O): 0.54
Structure (SMILES): COCCOCCOCCOc1cc(C=O)c(OCCOCCOCCOC)cc1C=O

Structure (SMILES): N#Cc1c(-n2c3ccccc3c3cc(Br)ccc32)c(-n2c3ccccc3c3cc(Br)ccc32)c(C#N)c(-n2c3ccccc3c3cc(Br)ccc32)c1-n1c2ccccc2c2cc(Br)ccc21
photoluminescence quantum yield (in Cc1ccccc1): 0.53

photoluminescence quantum yield (in CC#N): 0.51
photoluminescence quantum yield (in CO): 0.14
photoluminescence quantum yield (in ClCCl): 0.63
Structure (SMILES): Cc1ccc(-c2[nH]c(=O)n3c2-c2ccccc2C3=O)c(O)c1

photoluminescence quantum yield (in ClCCl): 0.00065
Structure (SMILES): COC(=O)C1=C(C(=O)OC)C2(c3ccccc3-c3ccccc32)[C@@H](c2ccc([N+](=O)[O-])cc2)C=C2c3cc(OC)c(OC)cc3CCN21

photoluminescence quantum yield (in ClCCl): 0.45
Structure (SMILES): CC1=C(c2ccccc2)Oc2cc3nc4ccccc4nc3c3cccc1c23

photoluminescence quantum yield (in ClCCl): 0.56
Structure (SMILES): C[Si]1(C)O[Si](C)(C)c2cc3c(-c4ccccc4F)c4cc(Cl)ccc4nc3cc21

photoluminescence quantum yield (in ClCCl): 0.43
Structure (SMILES): F[B-]1(F)OC(C#Cc2ccccc2)=CC(c2ccccc2)=[O+]1

photoluminescence quantum yield (in C1CCCCC1): 0.22
photoluminescence quantum yield (in CC#N): 0.08
Structure (SMILES): C[Si](C)(C)[Si](C)(C)c1ccc2cc3ccccc3cc2c1

photoluminescence quantum yield (in CCCCCCC): 0.65
Structure (SMILES): c1cc2c3c(cccc3c1)-c1cc3c(ccc4ccccc43)cc1-2

photoluminescence quantum yield (in ClC(Cl)Cl): 0.156
Structure (SMILES): CC[Si](C)(C)c1cc2ccc3cccc4ccc(c1C(=O)NC(C)(C)C)c2c34

photoluminescence quantum yield (in CO): 0.58
photoluminescence quantum yield (in CS(C)=O): 0.63
Structure (SMILES): CCC1=C(C)C2=Cc3c4ccccc4c4n3[B-](c3cc[n+](C)cc3)(Oc3ccccc3-4)[N+]2=C1C (stereo not given)

photoluminescence quantum yield (in ClC(Cl)Cl): 0.08
Structure (SMILES): C[Si](C)(C)C#Cc1c2c(=O)c3ccccc3c2c(C#C[Si](C)(C)C)c2c(=O)c3ccccc3c12

Source: the Deep4Chem optical property database
